Common to all, as to assay: inhibition of tumour cell growth, NCI panel, 48 h
Assay [1] deals with OVCAR-5 ovarian.
Assay [2] deals with UACC-62 melanoma.
Assay [3] deals with OVCAR-3 ovarian.
Assay [4] has as its system DU-145 prostate.
Assay [5] concerns LOX IMVI melanoma.
Assay [6] deals with PC-3 prostate.
For assay [7], the system named is HCC-2998 colon.
In assay [8] the test system is HT29 colon.
Assay [9] has as its system A498 renal.
Assay [10] deals with IGROV1 ovarian.

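Five compound concentrations were applied to cells in 96-well plates for 48 hours; endpoints were derived by simple linear interpolation of the resulting dose-response curve. TGI: total growth inhibition.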 Where only a bound is given, the exact number is not on record here.

On to `CCN1CCC(O)(c2ccc(Oc3ccc(C)cc3)cc2)C(C(=O)c2ccc(Oc3ccc(C)cc3)cc2)C1` (stereo not given), for which the TGI in assay [1] is 32.1 µM; in assay [2] it was 24.5 µM; in assay [3] it was 36.9 µM; in [4], 20.1 µM; in [5], 13.5 µM; in assay [6] it was 24.5 µM. The TGI in [7] came out at 20.8 µM; in assay [8], 14.2 µM; in assay [9] it was 6.39 µM; in assay [10] it was 25 µM.
As to `O=[N+]([O-])c1c2nc3n(c2cc2c1nc1n2CCC1)CCC3`, the TGI in [1], in assay [2], in assay [3], in assay [4], in assay [5] and in assay [6] was over 100 µM each time. The TGI in assay [7], in assay [8], in assay [9] and in assay [10] was over 100 µM each time.
Take `COc1ccc2cc(C(=O)NCCCNC(=O)c3ccc4cc(OC)ccc4c3)ccc2c1`: the TGI in [1], in assay [2], in assay [3], in assay [4], in assay [5] and in assay [6] was over 100 µM in each case. For the same molecule, the TGI in [7], in [8], in assay [9] and in [10] was over 100 µM each time.
As to `CCCCCCCCCCCCCCCCCCOCC(COP(=O)([O-])OCC[N+](C)(C)C)OC` (stereo not given), the TGI is 37 µM in assay [1]; 47.1 µM in [2]; 54.5 µM in assay [3]; over 100 µM in assay [4]; 45 µM in assay [5]; 57.2 µM in assay [6]. Besides, the TGI is 9.93 µM in assay [7], 23.5 µM in assay [8], 45.8 µM in assay [9] and 18.7 µM in [10].
Take `Nn1c(Cc2ccccc2)n[nH]c1=O`: the TGI in [1], in [2], in assay [3], in assay [4], in assay [5] and in [6] was over 100 µM throughout. Also, the TGI in assay [7], in [8], in assay [9] and in [10] was over 100 µM each time.
Regarding `C=CCCCCCCCCCOC1C=CC(OC(C)=O)C(COC(C)=O)O1` (stereo not given), the TGI in [1], in [2], in assay [3], in assay [4], in [5] and in [6] was over 100 µM each time. For the same molecule, the TGI in assay [7] was over 100 µM; in assay [8], 48.1 µM; in assay [9] it was over 100 µM; in assay [10], over 100 µM.
For `Cc1cc2nc(N3C(=O)/C(=C/c4ccc(Cl)cc4)N=C3c3ccccc3)sc2cc1C`, the TGI in assay [1] was 92.7 µM; in [2], over 100 µM; in assay [3], 50 µM; in assay [4] it was over 100 µM; in assay [5] it was 56.2 µM; in [6], 98.9 µM. Moreover, the TGI in assay [7] was 48.5 µM; in [8] it was 63.2 µM; in assay [9] it was 85.9 µM; in [10], over 100 µM.
For `Cn1c(=O)c2c(nc(Nc3ccc(Cl)cc3)n3c(=O)n(-c4ccccc4)c(=O)n23)n(C)c1=O`, the TGI in assay [1], in [2], in [3], in [4], in assay [5] and in [6] was over 100 µM in each case. Besides, the TGI in [7], in assay [8], in assay [9] and in assay [10] was over 100 µM in each case.
`c1ccc2c(c1)CC1COc3ccccc3C1O2` (stereo not given): the TGI in assay [1], in assay [2], in assay [3], in assay [4], in assay [5] and in assay [6] was over 100 µM each time. Besides, the TGI in [7], in assay [8], in assay [9] and in assay [10] was over 100 µM each time.
Turning to `CCOC(=O)C(C(=O)OCC)=C1NC2(c3ccccc3Nc3ccc(C)cc32)C(C(=O)OC)S1` (stereo not given), the TGI in assay [1], in assay [2], in assay [3], in assay [4], in [5] and in [6] was over 100 µM throughout. In addition, the TGI in assay [7], in assay [8], in [9] and in [10] was over 100 µM throughout.
`Cc1ccc(S(=O)(=O)N2CCNCCN(S(=O)(=O)c3ccc(C)cc3)CCN(S(=O)(=O)c3ccc(C)cc3)CC2)cc1`: the TGI in assay [1], in assay [2], in [3], in assay [4], in assay [5] and in assay [6] was over 100 µM each time. Also, the TGI in assay [7], in [8], in [9] and in assay [10] was over 100 µM throughout.
With `COc1ccccc1NC(=O)O/N=C(/Cl)C(C)C`, the TGI in assay [1] came out at 35.8 µM; in assay [2], 37.4 µM; in assay [3] it was 16.3 µM; in assay [4], 33.2 µM; in assay [5], 6.75 µM; in assay [6] it was 33.2 µM. Further, the TGI in [7] was 30.1 µM; in assay [8], 15.3 µM; in assay [9], 29.9 µM; in assay [10], 32.7 µM.
For `CC(=O)N1c2ccccc2C(C)C1c1[nH]c2ccccc2c1C` (stereo not given), the TGI is 34 µM in assay [1]; 48.9 µM in assay [2]; 46.1 µM in [3]; over 100 µM in assay [4]; over 100 µM in [5]; over 100 µM in [6]. The TGI in assay [7] is 34 µM; in assay [8], 57.1 µM; in assay [9] it was 53.8 µM; in assay [10], over 100 µM.
Take `CCOC(=O)Cn1c(=O)c2cc(-c3ccccc3)cc3c(Cl)nc4c(OC)c(OC)cc1c4c32`: the TGI in assay [1] was over 100 µM; in assay [2] it was 30.4 µM; in [3], 60.1 µM; in [4], over 61 µM; in assay [5] it was 26.4 µM; in assay [6] it was 55.4 µM. Besides, the TGI in assay [7] was 34.5 µM; in assay [8], 48.1 µM; in [9] it was 59.6 µM; in assay [10], 27.5 µM.
For `c1ccc(-c2cc(-c3cccs3)c(-c3cccs3)o2)cc1`, the TGI in assay [1], in [2], in assay [3], in [4], in [5] and in assay [6] was over 100 µM throughout. Besides, the TGI in [7], in assay [8], in [9] and in assay [10] was over 100 µM in each case.
For the molecule `S=C(Nc1ccccn1)Nc1ccccc1Cl`, the TGI in [1], in assay [2], in [3], in assay [4], in [5] and in assay [6] was over 100 µM each time. Also, the TGI is over 100 µM in assay [7], over 100 µM in assay [8], over 100 µM in [9] and over 67 µM in assay [10].
Turning to `Clc1c(C(Cl)(Cl)Cl)nsc1N1CCCCC1`, the TGI was over 100 µM in [1]; over 100 µM in assay [2]; 56.9 µM in assay [3]; over 100 µM in assay [4]; 32.5 µM in [5]; 95.3 µM in assay [6]. In addition, the TGI is 47.9 µM in assay [7], 38.3 µM in [8], 46.1 µM in assay [9] and over 100 µM in assay [10].
As to `Clc1ncc(Cl)c(Cl)n1`, the TGI was determined as 34.2 µM in assay [1]; 4.42 µM in [2]; 14.3 µM in assay [3]; 24.1 µM in [4]; 3.22 µM in [5]; 5.64 µM in [6]. For the same molecule, the TGI is 15.1 µM in assay [7], 3.02 µM in assay [8], 40.2 µM in assay [9] and 23.3 µM in assay [10].
For the molecule `Cc1nc2ccccc2n1Cc1nnc(N)o1`, the TGI in assay [1], in assay [2], in assay [3], in [4], in assay [5] and in assay [6] was over 100 µM each time. Besides, the TGI in assay [7], in assay [8], in assay [9] and in [10] was over 100 µM in each case.
With `CC(NC(C#N)CC12CC3CC(CC(C3)C1)C2)c1ccccc1` (stereo not given), the TGI in [1] was over 100 µM; in assay [2] it was over 100 µM; in assay [3], 71.9 µM; in assay [4] it was over 100 µM; in assay [5], 62.7 µM; in [6] it was over 100 µM. The TGI in assay [7], in assay [8], in assay [9] and in assay [10] was over 100 µM each time.
As for `N=c1c2c(=S)n(-c3ccccc3)c(=S)n(-c3ccccc3)c2nc(SCCN2CCOCC2)n1-c1ccccc1`, the TGI was 33.9 µM in assay [1]; 3.29 µM in assay [2]; 3.3 µM in assay [3]; 3.22 µM in [4]; 3.71 µM in assay [5]; 3.35 µM in [6]. Besides, the TGI worked out at 3.24 µM in assay [7], 4.03 µM in [8], 8.96 µM in assay [9] and 3.36 µM in assay [10].
Turning to `CC(=O)O[C@H]1C[C@H]2C(=S)Nc3ccccc3C(=S)N2C1`, the TGI in assay [1], in [2], in assay [3], in [4], in assay [5] and in [6] was over 100 µM each time. In addition, the TGI in [7], in assay [8], in assay [9] and in assay [10] was over 100 µM in each case.
On to `CC(=O)OCC1=C(C)C[C@H]([C@@H](COC(C)=O)C2CCC3C4C[C@H]5O[C@]56CC=CC(=O)[C@]6(C)C4CC[C@@]32C)OC1=O` (stereo not given in full), for which the TGI in assay [1] is 3.13 µM; in assay [2] it was 0.976 µM; in assay [3], 0.553 µM; in [4] it was 1.41 µM; in assay [5] it was 0.552 µM; in assay [6] it was 1.27 µM. Moreover, the TGI in [7] stood at 1.2 µM; in assay [8], 0.508 µM; in assay [9] it was 1.64 µM; in assay [10], 0.849 µM.

Values taken from PubChem BioAssay (NCI).
